Test results as given in patent US9029391B2 (priority 2011, dated 2015).

System: HIV
Test: MT4 Assay (anti-HIV activity)
Type: cell-based
Settings: Human immunodeficiency virus 1, 96 h, read-out: HIV MT4 Assay IC50, HTLV-1 transformed cell line MT-4, cell titer glo, 10 point dose response curve
Protocol: Antiviral HIV activity and cytotoxicity values for compounds of the invention from Table 1 were measured in parallel in the HTLV-1 transformed cell line MT-4 based on the method previously described (Hazen et al., 2007, In vitro antiviral activity of the novel, tyrosyl-based human immunodeficiency virus (HIV) type 1 protease inhibitor brecanavir (GW640385) in combination with other antiretrovirals and against a panel of protease inhibitor-resistant HIV (Hazen et al., “In vitro antiviral activity of the novel, tyrosyl-based human immunodeficiency virus (HIV) type 1 protease inhibitor brecanavir (GW640385) in combination with other antiretrovirals and against a panel of protease inhibitor-resistant HIV”, Antimicrob. Agents Chemother. 2007, 51: 3147-3154; and Pauwels et al., “Sensitive and rapid assay on MT-4 cells for the detection of antiviral compounds against the AIDS virus”, J. of Virological Methods 1987, 16: 171-185).
Luciferase activity was measured 96 hours later by adding a cell titer glo (Promega, Madison, Wis.). Percent inhibition of cell protection data was plotted relative to no compound control. Under the same condition, cytotoxicity of the compounds was determined using cell titer glo (Promega, Madison, Wis.). IC50s were determined from a 10 point dose response curve using 3-4-fold serial dilution for each compound, which spans a concentration range >1000 fold.

Structure (SMILES) | IC50 [µM]
Cn1c(C(OC(C)(C)C)C(=O)O)c(-c2ccc(Cl)c(Cl)c2)c2ccccc2c1=O (centres unmarked) [Example 11, 2-(tert-butoxy)-2-[4-(3,4-dichlorophenyl)-2-methyl-1-oxo-1,2-dihydroisoquinolin-3-yl]acetic acid] | 14.8
Cn1c(C(OC(C)(C)C)C(=O)O)c(-c2cc(Cl)cc(Cl)c2)c2ccccc2c1=O (centres unmarked) [Example 12, 2-(tert-butoxy)-2-[4-(3,5-dichlorophenyl)-2-methyl-1-oxo-1,2-dihydroisoquinolin-3-yl]acetic acid] | 36.7
Cn1c(C(OC(C)(C)C)C(=O)O)c(-c2cccc(C(F)(F)F)c2)c2ccccc2c1=O (centres unmarked) [Example 13, 2-(tert-butoxy)-2-{2-methyl-1-oxo-4-[3-(trifluoromethyl)phenyl]-1,2-dihydroisoquinolin-3-yl}acetic acid] | 23.8
Cn1c(C(OC(C)(C)C)C(=O)O)c(-c2cc(Cl)ccc2Cl)c2ccccc2c1=O (centres unmarked) [Example 14, 2-(tert-butoxy)-2-[4-(2,5-dichlorophenyl)-2-methyl-1-oxo-1,2-dihydroisoquinolin-3-yl]acetic acid] | 2.57
COc1cccc(-c2c(C(OC(C)(C)C)C(=O)O)n(C)c(=O)c3ccccc23)c1 (centres unmarked) [Example 15, 2-(tert-butoxy)-2-[4-(3-methoxyphenyl)-2-methyl-1-oxo-1,2-dihydroisoquinolin-3-yl]acetic acid] | 8.59
Cn1c(C(OC(C)(C)C)C(=O)O)c(-c2cccc(OC(F)(F)F)c2)c2ccccc2c1=O (centres unmarked) [Example 16, 2-(tert-butoxy)-2-{2-methyl-1-oxo-4-[3-(trifluoromethoxy)phenyl]-1,2-dihydroisoquinolin-3-yl}acetic acid] | 20.7
Cn1c(C(OC(C)(C)C)C(=O)O)c(-c2ccc(C(F)(F)F)cc2)c2ccccc2c1=O (centres unmarked) [Example 17, 2-(tert-butoxy)-2-{2-methyl-1-oxo-4-[4-(trifluoromethyl)phenyl]-1,2-dihydroisoquinolin-3-yl}acetic acid] | 18.4
Cc1cccc(-c2c(C(OC(C)(C)C)C(=O)O)n(C)c(=O)c3ccccc23)c1 (centres unmarked) [Example 18, 2-(tert-butoxy)-2-[2-methyl-4-(3-methylphenyl)-1-oxo-1,2-dihydroisoquinolin-3-yl]acetic acid] | 3.58
Cc1c(-c2c(C(OC(C)(C)C)C(=O)O)n(C)c(=O)c3ccccc23)ccc2c1CCCO2 (centres unmarked) [Example 19, 2-(tert-butoxy)-2-[2-methyl-4-(5-methyl-3,4-dihydro-2H-1-benzopyran-6-yl)-1-oxo-1,2-dihydroisoquinolin-3-yl]acetic acid] | 0.41
Cc1cc2c(cc1-c1c(C(OC(C)(C)C)C(=O)O)n(C)c(=O)c3ccccc13)CCCO2 (centres unmarked) [Example 20, 2-(tert-butoxy)-2-[2-methyl-4-(7-methyl-3,4-dihydro-2H-1-benzopyran-6-yl)-1-oxo-1,2-dihydroisoquinolin-3-yl]acetic acid] | 3.79
Cn1c(C(OC(C)(C)C)C(=O)O)c(-c2ccc3c(c2Cl)CCCO3)c2ccccc2c1=O (centres unmarked) [Example 21, 2-(tert-butoxy)-2-[4-(5-chloro-3,4-dihydro-2H-1-benzopyran-6-yl)-2-methyl-1-oxo-1,2-dihydroisoquinolin-3-yl]acetic acid] | 3.5
Cn1c(C(OC(C)(C)C)C(=O)O)c(-c2ccc(OC3CCCCC3)cc2)c2ccccc2c1=O (centres unmarked) [Example 24, 2-(tert-butoxy)-2-{4-[4-(cyclohexyloxy)phenyl]-2-methyl-1-oxo-1,2-dihydroisoquinolin-3-yl}acetic acid] | 25
Cn1c(C(OC(C)(C)C)C(=O)O)c(-c2ccc3c(c2)CCCO3)c2cc(F)ccc2c1=O (centres unmarked) [Example 25, 2-(tert-butoxy)-2-[4-(3,4-dihydro-2H-1-benzopyran-6-yl)-6-fluoro-2-methyl-1-oxo-1,2-dihydroisoquinolin-3-yl]acetic acid] | 0.67
Cn1c(C(OC(C)(C)C)C(=O)O)c(-c2ccc3c(c2)CCCO3)c2cc(Cl)ccc2c1=O (centres unmarked) [Example 26, 2-(tert-butoxy)-2-[6-chloro-4-(3,4-dihydro-2H-1-benzopyran-6-yl)-2-methyl-1-oxo-1,2-dihydroisoquinolin-3-yl]acetic acid] | 1.9
COc1cc(-c2c(C(OC(C)(C)C)C(=O)O)n(C)c(=O)c3ccccc23)cc(OC)c1OC (centres unmarked) [Example 27, 2-(tert-butoxy)-2-[2-methyl-1-oxo-4-(3,4,5-trimethoxyphenyl)-1,2-dihydroisoquinolin-3-yl]acetic acid] | 50
CCn1c(C(OC(C)(C)C)C(=O)O)c(-c2ccc(C)c(C)c2)c2ccccc2c1=O (centres unmarked) [Example 28, 2-(tert-butoxy)-2-[4-(3,4-dimethylphenyl)-2-ethyl-1-oxo-1,2-dihydroisoquinolin-3-yl]acetic acid] | 6.13

Structure (SMILES) | IC50 [µM]
Cn1c(C(OC(C)(C)C)C(=O)O)c(-c2cccc3ccccc23)c2ccccc2c1=O (centres unmarked) [Example 29, 2-(tert-butoxy)-2-[2-methyl-4-(naphthalen-1-yl)-1-oxo-1,2-dihydroisoquinolin-3-yl]acetic acid] | 8.3
CC(C)(C)OC(C(=O)O)c1c(-c2ccc3c(c2)CCCO3)c2ccccc2c(=O)n1C1CC1 (centres unmarked) [Example 30, 2-(tert-butoxy)-2-[2-cyclopropyl-4-(3,4-dihydro-2H-1-benzopyran-6-yl)-1-oxo-1,2-dihydroisoquinolin-3-yl]acetic acid] | 38.3
COc1ccc(-c2c(C(OC(C)(C)C)C(=O)O)n(C)c(=O)c3ccccc23)c(C)c1 (centres unmarked) [Example 31, 2-(tert-butoxy)-2-[4-(4-methoxy-2-methylphenyl)-2-methyl-1-oxo-1,2-dihydroisoquinolin-3-yl]acetic acid] | 1.72
COc1ccccc1-c1c(C(OC(C)(C)C)C(=O)O)n(C)c(=O)c2ccccc12 (centres unmarked) [Example 33, 2-(tert-butoxy)-2-[4-(2-methoxyphenyl)-2-methyl-1-oxo-1,2-dihydroisoquinolin-3-yl]acetic acid] | 21.7
Cc1ccc(-c2c(C(OC(C)(C)C)C(=O)O)n(C)c(=O)c3ccccc23)c(C)c1 (centres unmarked) [Example 34, 2-(tert-butoxy)-2-[4-(2,4-dimethylphenyl)-2-methyl-1-oxo-1,2-dihydroisoquinolin-3-yl]acetic acid] | 0.41
Cn1c(C(OC(C)(C)C)C(=O)O)c(-c2ccc3c(c2)CCCO3)c2cccc(F)c2c1=O (centres unmarked) [Example 35, 2-(tert-butoxy)-2-[4-(3,4-dihydro-2H-1-benzopyran-6-yl)-8-fluoro-2-methyl-1-oxo-1,2-dihydroisoquinolin-3-yl]acetic acid] | 1.89
Cn1c(C(OC(C)(C)C)C(=O)O)c(-c2ccc3c(c2)OCCC3)c2ccccc2c1=O (centres unmarked) [Example 36, 2-(tert-butoxy)-2-[4-(3,4-dihydro-2H-1-benzopyran-7-yl)-2-methyl-1-oxo-1,2-dihydroisoquinolin-3-yl]acetic acid] | 15
Cn1c(C(OC(C)(C)C)C(=O)O)c(-c2ccc3c(c2Cl)OCCC3)c2ccccc2c1=O (centres unmarked) [Example 37, 2-(tert-butoxy)-2-[4-(8-chloro-3,4-dihydro-2H-1-benzopyran-7-yl)-2-methyl-1-oxo-1,2-dihydroisoquinolin-3-yl]acetic acid] | 33.2
Cn1c(C(OC(C)(C)C)C(=O)O)c(-c2ccc(F)c(F)c2)c2ccccc2c1=O (centres unmarked) [Example 38, 2-(tert-butoxy)-2-[4-(3,4-difluorophenyl)-2-methyl-1-oxo-1,2-dihydroisoquinolin-3-yl]acetic acid] | 2.41
Cn1c(C(OC(C)(C)C)C(=O)O)c(-c2ccc3c(c2)CCCO3)c2ccccc2c1=O (centres unmarked) [Example 39, 2-(tert-butoxy)-2-[4-(3,4-dihydro-2H-1-benzopyran-6-yl)-2-methyl-1-oxo-1,2-dihydroisoquinolin-3-yl]acetic acid] | 1.88
Cn1c(C(OC(C)(C)C)C(=O)O)c(-c2cccc(F)c2)c2ccccc2c1=O (centres unmarked) [Example 40, 2-(tert-butoxy)-2-[4-(3-fluorophenyl)-2-methyl-1-oxo-1,2-dihydroisoquinolin-3-yl]acetic acid] | 2.18
Cn1c(C(OC(C)(C)C)C(=O)O)c(-c2cccnc2)c2ccccc2c1=O (centres unmarked) [Example 41, 2-(tert-butoxy)-2-[2-methyl-1-oxo-4-(pyridin-3-yl)-1,2-dihydroisoquinolin-3-yl]acetic acid] | 50
CCOc1ccc(-c2c(C(OC(C)(C)C)C(=O)O)n(C)c(=O)c3ccccc23)cc1 (centres unmarked) [Example 42, 2-(tert-butoxy)-2-[4-(4-ethoxyphenyl)-2-methyl-1-oxo-1,2-dihydroisoquinolin-3-yl]acetic acid] | 33.3
Cc1cc(C)c(-c2c(C(OC(C)(C)C)C(=O)O)n(C)c(=O)c3ccccc23)cc1C (centres unmarked) [Example 43, 2-(tert-butoxy)-2-[2-methyl-1-oxo-4-(2,4,5-trimethylphenyl)-1,2-dihydroisoquinolin-3-yl]acetic acid] | 0.37
CCCOc1ccc(-c2c(C(OC(C)(C)C)C(=O)O)n(C)c(=O)c3ccccc23)cc1 (centres unmarked) [Example 44, 2-(tert-butoxy)-2-[2-methyl-1-oxo-4-(4-propoxyphenyl)-1,2-dihydroisoquinolin-3-yl]acetic acid] | 38.9
CC(C)Oc1ccc(-c2c(C(OC(C)(C)C)C(=O)O)n(C)c(=O)c3ccccc23)cc1 (centres unmarked) [Example 45, 2-(tert-butoxy)-2-{2-methyl-1-oxo-4-[4-(propan-2-yloxy)phenyl]-1,2-dihydroisoquinolin-3-yl}acetic acid] | 50
